Source: patent publication US20070224648A1, “Methods and compositions for the diagnosis of treatment of type 2 diabetes” (The Chancellor, Masters and Scholars of the University of …, priority 2005, published 2007)
Values belong to the compound of their own block, whether it stands above or below them.

Columns and labels:
[1] = target: T1, KATP channels from C57BL/6J β-cells (Mus musculus, UniProt Q61743); experiment: ATP sensitivity of KATP channels in inside-out patches; type: biochemical
T1 construct: inside-out patches excised from a C57BL/6J or CH3/HeH β-cell; endogenous in cells; host or cells: primary pancreatic β-cells isolated from C57BL/6J and C3H/HeH mice
Experimental: The ATP sensitivity of KATP channels was measured at −60 mV in inside-out patches. Currents were digitized at 5 kHz and filtered at 2 kHz. The pipette (extracellular) contained (mmol/l): 140 KCl, 2.6 CaCl2, 1.2 MgCl2, 10 HEPES (pH 7.4 with KOH). The bath (intracellular) solution contained (mmol/l): 107 KCl, 1 MgCl2, 1 CaCl2, 10 HEPES (pH 7.2 with KOH), and K2ATP as indicated.
Concentration-response relations were obtained by alternating test solutions with control (glucose- or ATP-free) solution. The control conductance was taken as the mean of that obtained in control solution before and after application of the test agent. The current in the presence of glucose or nucleotide (I) is plotted as a fraction of that obtained in control solution (IC). Data were fit with the Hill equation: I/IC=1/(1+([X]/IC50)h) where [X] is the concentration of glucose or ATP, IC50 is the concentration giving half-maximal inhibition of the current and h is the Hill coefficient. Data are given as mean±one S.E.M.

rodent islets = conditions: cited from earlier work
[2] = system: isolated wild-type islets; experiment: Glucose utilization in isolated pancreatic islets; type: cell-based, mouse; conditions: H2O2, 20 mM glucose
Experimental: FIG. 19: Glucose utilization in pancreatic islets isolated wild-type and homozygous NNT mutant mice (G745D). Each data point is the mean of 6 replicates each of 5 islets. Glucose utilization was measured as described in Ashcroft S J H, Weerasinghe L C C, Bassett J M, Randle P J: The pentose cycle and insulin release in mouse pancreatic islets. Biochem J (1972) 126, 525-532. Briefly, And these islets were placed in 20 microlitres of medium containing [3H]glucose and various concentrations of unlabelled glucose (as indicated). The tubes were placed in outer vials containing 0.5 ml of water. After 2-hours of incubation, metabolism was terminated by applying 5 microlitres of HCl. Then these samples were incubated for more than 18-24 hours to allow [3H]water in the incubation tube to equilibrate with the water in outer vial. Then, radioactivity of the water in the outer vial was measured. Control samples without islets were used to correct for background counts.
FIG. 20: Effect of H2O2 on glucose utilization in isolated wild-type islets. Each data point is the mean of 6 replicates each of 5 islets.

MIN6 cells [3] = experiment: Fura-2 calcium imaging in MIN6 cells; type: cell-based; conditions: for calcium response to glucose: 1 mM glutathione for 4 hours, Nnt siRNA transfected cells
Experimental: (§1) MIN6 cells were cultured on 35mm Fluorodishes (World Precision Instruments) and incubated with 3 μM Fura-2-AM (Molecular Probes) for 40 min at 37° C. They were imaged at room temperature (20-24° C.) using an IonOptix fluorescence system (Boston, Mass.), with 340 nm and 380 nm dual excitation. The 510 nm emission ratio was collected at 1 Hz. Background subtraction was performed by measuring fluorescence from a cell-free region in the field of view. Cells were perfused continuously with extracellular solution containing (mM): 137 NaCl, 5.6 KCl, 2.6 CaCl2, 1.2 MgCl2, 10 HEPES (pH 7.4 with NaOH) plus glucose or tolbutamide as indicated.

[4] = system: type-2 diabetic human islets; conditions: cited from earlier work
MIN6 cells [5] = experiment: Insulin secretion from MIN6 cells; type: cell-based; conditions: for insulin secretory response: 1 mM glutathione for 4 hours, Nnt siRNA transfected cells; for insulin secretion: tolbutamide 200 μM
[6] = system: human and rodent pancreatic islets; conditions: preincubation in 15 μM metformin; cited from earlier work
[7] = system: isolated pancreatic islets; experiment: Insulin secretion from isolated pancreatic islets
[8] = system: β-cells isolated from C57BL/6J and C3H/HeH mice; experiment: Fura-2 imaging of intracellular calcium in isolated β-cells; type: cell-based, mouse; conditions: 500 μmol/l tolbutamide; C57BL/6J and C3H/HeH β-cells
Experimental: as §1, with “Islet” for “MIN6”, “35 mm” for “35mm”, “Instruments, Stevenage, UK)” for “Instruments)”, “Probes, Paisley, UK)” for “Probes)”, “(as in perforated-patch experiments),” for “containing (mM): 137 NaCl, 5.6 KCl, 2.6 CaCl2, 1.2 MgCl2, 10 HEPES (pH 7.4 with NaOH)”, “indicated. Only data from cells that responded to 500 μmol/l tolbutamide were analysed.” for “indicated.”

T1 sequence (Q61743 whole entry): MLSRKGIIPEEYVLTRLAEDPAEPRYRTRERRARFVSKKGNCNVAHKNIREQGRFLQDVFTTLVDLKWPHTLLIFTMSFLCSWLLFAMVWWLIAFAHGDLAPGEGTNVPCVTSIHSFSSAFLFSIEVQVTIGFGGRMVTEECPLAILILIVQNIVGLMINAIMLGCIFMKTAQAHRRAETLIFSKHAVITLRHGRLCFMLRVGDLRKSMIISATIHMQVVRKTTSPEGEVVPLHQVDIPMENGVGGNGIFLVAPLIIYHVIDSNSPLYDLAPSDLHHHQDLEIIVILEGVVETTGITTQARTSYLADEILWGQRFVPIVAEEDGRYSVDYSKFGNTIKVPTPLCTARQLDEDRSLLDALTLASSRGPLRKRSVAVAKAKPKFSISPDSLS
T1 sequence (B2RUS7 1-1588 partner): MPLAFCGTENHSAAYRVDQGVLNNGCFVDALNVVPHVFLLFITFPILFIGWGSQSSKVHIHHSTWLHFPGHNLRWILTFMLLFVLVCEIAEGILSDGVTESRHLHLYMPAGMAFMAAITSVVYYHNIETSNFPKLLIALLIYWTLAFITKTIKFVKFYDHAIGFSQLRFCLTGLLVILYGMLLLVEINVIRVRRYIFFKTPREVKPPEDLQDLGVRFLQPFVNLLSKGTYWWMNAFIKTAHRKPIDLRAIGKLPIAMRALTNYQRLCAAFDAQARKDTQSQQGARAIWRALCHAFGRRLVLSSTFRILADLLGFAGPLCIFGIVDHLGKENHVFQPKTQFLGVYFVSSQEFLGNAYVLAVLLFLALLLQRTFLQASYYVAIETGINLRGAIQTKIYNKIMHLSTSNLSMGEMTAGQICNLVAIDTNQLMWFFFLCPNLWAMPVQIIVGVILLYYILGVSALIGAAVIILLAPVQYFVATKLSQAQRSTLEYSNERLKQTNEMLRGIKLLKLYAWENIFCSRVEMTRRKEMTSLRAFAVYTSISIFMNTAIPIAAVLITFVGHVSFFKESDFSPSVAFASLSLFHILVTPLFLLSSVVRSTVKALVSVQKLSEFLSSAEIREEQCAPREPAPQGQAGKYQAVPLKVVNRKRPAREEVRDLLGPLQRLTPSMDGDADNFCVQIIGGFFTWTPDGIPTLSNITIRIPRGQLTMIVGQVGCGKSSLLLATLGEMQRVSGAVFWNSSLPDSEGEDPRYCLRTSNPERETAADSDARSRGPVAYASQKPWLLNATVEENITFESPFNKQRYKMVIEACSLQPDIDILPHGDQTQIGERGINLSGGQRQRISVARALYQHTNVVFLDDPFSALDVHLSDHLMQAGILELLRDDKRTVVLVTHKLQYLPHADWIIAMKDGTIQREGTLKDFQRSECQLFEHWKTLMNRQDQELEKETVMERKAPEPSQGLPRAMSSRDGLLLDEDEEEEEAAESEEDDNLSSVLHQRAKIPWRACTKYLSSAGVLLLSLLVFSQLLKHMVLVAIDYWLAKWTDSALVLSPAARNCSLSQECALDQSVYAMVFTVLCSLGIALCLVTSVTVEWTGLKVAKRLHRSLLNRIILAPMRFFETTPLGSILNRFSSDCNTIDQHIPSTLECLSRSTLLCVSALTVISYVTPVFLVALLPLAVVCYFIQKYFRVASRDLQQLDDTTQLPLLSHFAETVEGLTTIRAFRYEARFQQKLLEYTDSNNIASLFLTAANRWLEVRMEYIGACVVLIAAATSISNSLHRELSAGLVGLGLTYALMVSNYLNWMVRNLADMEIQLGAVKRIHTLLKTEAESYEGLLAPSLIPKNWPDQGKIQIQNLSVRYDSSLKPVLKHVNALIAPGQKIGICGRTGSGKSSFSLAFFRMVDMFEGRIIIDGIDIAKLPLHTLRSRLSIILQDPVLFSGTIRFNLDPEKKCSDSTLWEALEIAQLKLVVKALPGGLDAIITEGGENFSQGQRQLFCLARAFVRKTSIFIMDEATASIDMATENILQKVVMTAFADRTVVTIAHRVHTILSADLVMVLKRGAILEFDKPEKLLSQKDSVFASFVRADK

Hill coefficient h, ATP on KATP channel activity ([1]; inside-out patches, n=5): 0.89±0.06
IC50 ([1]; read-out: half-maximal inhibition of C57BL/6J KATP channels by ATP (IC50)): 10 µM
SMILES: Nc1ncnc2c1ncn2[C@@H]1O[C@H](COP(=O)(O)OP(=O)(O)OP(=O)(O)O)[C@@H](O)[C@H]1O [ATP]

SMILES: OO [H2O2]
insulin secretion (rodent islets; H2O2, rodent β-cells): inhibits insulin secretion
glucose utilization [2]: significantly increases glucose utilization

SMILES: N[C@@H](CCC(=O)N[C@@H](CS)C(=O)NCC(=O)O)C(=O)O [glutathione]
calcium response to glucose (MIN6 cells [3]): partially reversed the impaired calcium
calcium response to glucose (MIN6 cells [3]; listed as Glutathione): partially restores the calcium response
secretory response to glucose ([4]; 24-hour culture with 30 μM glutathione): improved significantly
insulin secretory response (MIN6 cells [5]): partially reversed the impaired calcium and insulin secretory responses
insulin secretory response (MIN6 cells [5]; listed as Glutathione): partially restores the insulin secretory response

SMILES: CN(C)C(=N)N=C(N)N [metformin]
protection from deleterious effects of elevated lipids [6]: protects human and rodent pancreatic islets from the deleterious effects of elevated lipids
glucose-stimulated insulin secretion ([7]; Nnt-G745D islets, 24-hour preincubation in 15 μM metformin): restored glucose-stimulated insulin secretion in pancreatic islets from the Nnt-G745D mutant mouse
glucose-stimulated insulin secretion ([7]; Nnt-G745D islets, 24-hour preincubation in 15 μM metformin, listed as Metformin): restores insulin secretion in Nnt mouse pancreatic islets
glucose-stimulated insulin secretion ([7]; WT islets, 24-hour preincubation in 15 μM metformin): little effect on wild-type (WT) pancreatic islets
glucose-stimulated insulin secretion ([7]; acute exposure to metformin): without effect
insulin secretion ([4]; preincubation in 15 μM metformin): partially restores insulin secretion in type-2 diabetic human islets
glucose-stimulated insulin secretion (rodent islets; incubation at 1 mM metformin): reduces glucose-stimulated insulin secretion

SMILES: CCCCNC(=O)NS(=O)(=O)c1ccc(C)cc1 [tolbutamide]
increase in [Ca]i (MIN6 cells [3]; tolbutamide 200 μM, nonsense vs Nnt siRNA transfected cells): stimulated a similar increase in [Ca]i in both cells transfected with nonsense and Nnt siRNA
calcium response (MIN6 cells [3]; tolbutamide 200 μM, nonsense, Nnt, UCP2 or UCP2+Nnt siRNA transfected cells): stimulated a calcium response
insulin secretion ([7]; tolbutamide, B6-TG vs B6-TG negative islets): stimulated secretion comparably in both strains
change in [Ca2+]i [8]: rise in [Ca2+]i
insulin secretion (MIN6 cells [5]; nonsense vs Nnt siRNA transfected cells): elicited equivalent responses in both nonsense and Nnt siRNA transfected cells
insulin secretion (MIN6 cells [5]; nonsense, Nnt, UCP2, UCP2/Nnt or Gck siRNA transfected cells): stimulated a calcium response and insulin secretion
